Data published in patent publication US12091676B2, “Method for preparing non-human primate somatic cell cloned animal” (CENTER FOR EXCELLENCE IN BRAIN SCIENCE AND INTELLIGENCE …, priority 2018, dated 2024).

Test system: cynomolgus monkey somatic cell nuclear transfer embryos
Assay: In vitro development of cynomolgus monkey somatic cell nuclear transfer embryos to blastocyst
Format: cell-based, cynomolgus monkey (Macaca fascicularis)
From the text: Oocyte denucleation: 15-20 MII stage oocytes were transferred to a glass-bottomed and oil-sealed TH3 working drop containing […], and the position of the oocyte nucleus was observed under the inverted microscope assisted by the spindle imaging system, and the oocyte was fixed with an egg-holding needle and the oocyte nucleus was located at 3 o'clock direction. The Piezo Micromainpulator System was used to drive a flat needle with a diameter of 10 microns to break the zona pellucida, and the oocyte nucleus was removed. After the whole group of oocytes were enucleated, the enucleated oocytes were transferred to HECM-9 medium.
Injection of fibroblasts into enucleated oocytes: 15-20 enucleated oocytes were transferred to an oil-sealed TH3 working drop containing […], and the oocytes were fixed with an egg holding needle, and the polar body was placed at 12 o'clock or 6 o'clock direction. The laser zona pellucida system was used for breaking the zona pellucida to form a narrow slit. An oblique needle with a diameter of 15-18 microns was used for aspirating fibroblasts and transferring the cells to HVJ-E for 10 seconds, and then the cells were removed and injected into the perivitelline space of the enucleated egg cell through the zona pellucida slit, and the somatic cell would fuse into the oocyte in about 10 minutes.
Injection of cumulus cells into enucleated oocytes: 15-20 enucleated oocytes were transferred to an oil-sealed TH3 working drop containing […], and the oocytes were fixed with an egg holding needle, and the polar body was placed at 12 o'clock or at 6 o'clock direction. The laser zona pellucida system was used for breaking the zona pellucida to form a narrow slit. A 10-micron oblique needle was used for aspirating the cumulus cells and transferring the cells to HVJ-E to soak for 10 seconds, then the cells were removed and injected into the 9 o'clock position of the enucleated egg cell through the zona pellucida slit, and the somatic cell would fuse into the oocyte in about 10 minutes.
In vitro activation of nuclear transfer embryos: Embryo activation can be performed 1-1.5 hours after the fusion of somatic cells and enucleated oocytes. The embryos were transferred to TH3 containing 5 μM ionomycin for 5 minutes, then transferred to HECM-9 medium containing 2 mM 6-DMAP and 10 nM TSA for 5 hours, then transferred to HECM-9 containing 10 nM TSA and cultured for 5 hours, and finally transferred to HECM-9 medium for culture.
Kdm4d mRNA injection: 5-6 hours after embryo activation, the activated embryo was transferred to an oil-sealed TH3 working drop containing 5 μg/ml CB, the embryo was fixed with an egg-holding needle, and the Piezo Micromainpulator System was used to drive a flat injection needle with a diameter of 2-3 microns to break the zona pellucida and penetrate deep into the embryo. The embryo cell membrane was broken and 1000 ng/μl of Kdm4d mRNA was injected into the embryo, and each embryo was injected about 10 pl. After the injection, the embryos were transferred to HECM-9 medium and cultured at 37° C. and 5% CO2.
Embryo culture: cloned embryos were cultured in HECM-9 medium, and then transferred to HECM-9 medium containing 5% FBS at the 8-cell stage, and the medium was changed every other day until blastocysts were appeared on day 7-8.

CC(/C=C/C(=O)NO)=C\[C@@H](C)C(=O)c1ccc(N(C)C)cc1 [TSA, Trichostatin, reference compound]
embryos developed to the blastocyst stage (blastocysts/embryos) (SCNT embryos cultured in vitro, TSA 10 nM, 10 h during and after activation): 5/31
blastocysts that had inner cell masses (out of 5 blastocysts, TSA 10 nM, 10 h): 2

Kdm5b: H3K4me3 demethylase injected into monkey somatic cell nuclear transfer embryos
effect on improving the efficiency of monkey somatic cell nuclear transfer embryos: no significant effect
blastocyst rate (20 injected embryos): 10%
blastocysts obtained (number) (of 20 injected monkey somatic cell nuclear transfer embryos): 2
